The values that follow come from patent publication US7087608B2, “Use of PDGF receptor tyrosine kinase inhibitors for the treatment of diabetic nephropathy” (priority 2000, dated 2006).

The assay concerns male Wistar rats with anti-Thy-1 nephritis. The assay is described as follows: Mesangial proliferative glomerulonephritis (anti-Thy-1 nephritis) induced with OX-7 antibody. It is filed as in vivo, rat. The source says: Mesangial proliferative Glomerulonephritis induced in Male Wistar Rats with monoclonal OX-7, anti-rat Thy-1.1 Antibody
Monoclonal OX-7, anti-rat Thy-1.1 antibody is used for the induction of mesangial proliferative glomerulonephritis (D. W. Mason and A. F. Williams, Biochem. J. 187(1), 1980, 1–20), macrophages are detected using ED1, anti-rat CD68 (C. D. Dijkstra et al., Immunology 54(3), 1985, 589–99) myofibroblasts are identified by labelling with 1A4, anti-human a smooth muscle actin (Sigma Immunochemicals, St. Louis, Mo.) and M744, anti-BrdU (Dako, Glostrup, Denmark) is used to identify proliferating cells. A polyclonal goat anti-bovine/anti-human type IV collagen antibody (Southern Biotechnology, Birmingham, Ala.) is used to examine extracellular matrix.
Anti-Thy-1 nephritis is induced in two groups of 8 male Wistar rats (150–170 g) by i.v. injection of 5 mg/kg OX-7 IgG (D. J. Nikolic-Paterson et al., J. Am. Soc. Nephrol. 7(7), 1996, 1006–14). […] A group of 8 normal rats are also injected with BrdU 3 hours before sacrifice.
Twenty-four hour urine collections and blood samples are taken on days-3 (prior to test) and day 6. Urinary protein concentration is measured by the benzethonium chloride method (Iwata, J. et al., Clin. Chem. 25(7), 1979, 1317–9). Serum and urine creatinine levels are measured using the Jaffé rate reaction (Larsen, K., Clin. Chim. Acta 41, 1972, 209–17).
Tissues are fixed in 4% neutral buffered-formalin and embedded in paraffin. Kidney sections (4 μm) are stained with periodic-acid Schiff's reagent (PAS). Quantitation of nuclei is performed by examining 50 hilar glomeruli per animal.
Immunostaining is performed as described by Rumble et al., J. Clin. Invest. 99, 1997, 1016–1027. Double immunohistochemical staining is performed in formalin fixed tissue sections using a microwave-based technique to prevent antibody cross-reactivity (G. H. Tesch, et al, Am. J. Pathol. 151(1), 1997, 141–50).
Sections stained with either BrdU or ED1 antibody are scored for ED1+ or BrdU+. Counting is undertaken using a graticule to measure glomerular tuft area and confined to the glomerular tuft thereby omitting cells within the capillary lumen. Fifty glomeruli are scored for each animal and labelled cells expressed as the mean±SD per mm^2. In addition, the number of cells in double-labelled sections are also scored as ED1+BrdU+, ED1+BrdU− and ED1−BrdU+.
The magnitude of immunostaining for type IV collagen is quantified using computer assisted image analysis as previously described (H. A. Lehr et al., J. Histochem. Cytochem. 45(11), 1997, 1559–65).

The mark [1] stands for this setting: 50 mg/kg daily i.p., day 6, 50 hilar glomeruli per animal, p<0.05.

`Cc1ccc(NC(=O)c2ccc(CN3CCN(C)CC3)cc2)cc1Nc1nccc(-c2cccnc2)n1` [CGP 57148B, N-{5-[4-(4-methyl-piperazino-methyl)-benzoylamido]-2-methylphenyl}-4-(3-pyridyl)-2-pyrimidine-amine] yielded a Proteinuria (50 mg/kg daily i.p. from day 1 after OX-7 IgG, day 6, 24-hour urine) of 16.4±7.0 mg/24 hours. In addition, the “Mesangial cell (BrdU+ED1−) proliferation per glomerular cross section (FIG. 2)” value (50 mg/kg daily i.p., day 6, 50 hilar glomeruli per animal, p<0.001) is given as “significantly reduced”. Also, under setting [1], the “Glomerular hypercellularity, nuclei per glomerular cross section (FIG. 1)” value is listed as “significantly reduced” and the “Number of activated mesangial cells (a-smooth muscle actin positive) (FIG. 3)” value was “significantly reduced”. Also, the “Glomerular matrix accumulation of immunostainable type IV collagen (FIG. 4)” value (50 mg/kg daily i.p., day 6, image analysis, p<0.05 versus untreated rats) is listed as “significantly reduced”. Moreover, the “Mesangial hypercellularity and increased mesangial matrix in PAS-stained kidney sections” value (50 mg/kg daily i.p., killed on day 6) is “not observed”.
